Laboratory results published in patent US20050165053A1, “Substituted4-aryl-3-(3-aryl-1-oxo-2-propenyl)-2(1h)-quinolinones and analogs as activators of caspases and inducers of apoptosis and the use thereof” (Cytovia, Inc., priority 2001, published 2005).

Assays:
T-47D [1] = assay: Caspase cascade activation assay in T-47D cells (N-(Ac-DEVD)-N'-ethoxycarbonyl-R110 fluorogenic substrate); type: cell-based, Human; conditions: 24 h incubation; for Caspase activity Ratio (net RFU of test compound to control): 0.016 to 10 μM final; for EC50: Homo sapiens, T47D, read-out: Caspase potency EC50
Protocol: (§1) Human breast cancer cell lines T-47D and ZR-75-1 were grown according to media component mixtures designated by American Type Culture Collection+10% FCS (Life Technologies Division of Invitrogen Corporation), in a 5% CO2-95% humidity incubator at 37° C. T-47D and ZR-75-1 cells were maintained at a cell density between 50 and 80% confluency at a cell density of 0.1 to 0.6×10^6 cells/ml. Cells were harvested at 600×g and resuspended at 0.65×10^6 cells/ml into appropriate media+10% FCS. An aliquot of 45 μl of cells was added to a well of a 96-well microtiter plate containing 2.5 μl of a 10% DMSO in RPMI-1640 media solution containing 0.16 to 100 μM of 6-bromo-3-[3-(4-nitrophenyl)-1-oxo-2-propenyl]-4-phenyl-2(1H)-quinolinone or other test compound (0.016 to 10 μM final). An aliquot of 22.5 μl of cells was added to a well of a 384-well microtiter plate containing 2.5 μl of a 10% DMSO in RPMI-1640 media solution without test compound as the control sample. The samples were mixed by agitation and then incubated at 37° C. for 24 h in a 5% CO2-95% humidity incubator. After incubation, the samples were removed from the incubator and 25 μl of a solution containing 14 μM of N-(Ac-DEVD)-N′-ethoxycarbonyl-R110 (SEQ ID No.: 1) fluorogenic substrate (Cytovia, Inc.; WO99/18856), 20% sucrose (Sigma), 20 mM DTT (Sigma), 200 mM NaCl (Sigma), 40 mM Na PIPES buffer pH 7.2 (Sigma), and 500 μg/ml lysolecithin (Calbiochem) was added. The samples were mixed by agitation and incubated at room temperature. Using a fluorescent plate reader (Model SpectraMax Gemini, Molecular Devices), an initial reading (T=0) was made approximately 1-2 min after addition of the substrate solution, employing excitation at 485 nm and emission at 530 nm, to determine the background fluorescence of the control sample. After the 3 h incubation, the samples were read for fluorescence as above (T=3 h).
(§2) The Relative Fluorescence Unit values (RFU) were used to calculate the sample readings as follows: RFU(T=3h)−Control RFU(T=0)=Net RFU(T=3h)
(§3) The activity of caspase cascade activation was determined by the ratio of the net RFU value for 6-bromo-3-[3-(4-nitrophenyl)-1-oxo-2-propenyl]-4-phenyl-2(1H)-quinolinone or other test compound to that of control samples. The EC50 (nM) was determined by a sigmoidal dose-response calculation (Prism 2.0, GraphPad Software Inc.).

ZR-75-1 [2] = assay: Caspase cascade activation assay in ZR-75-1 cells (N-(Ac-DEVD)-N'-ethoxycarbonyl-R110 fluorogenic substrate); type: cell-based, Human; conditions: ZR-75-1, 24 h incubation; for EC50: Homo sapiens, read-out: Caspase potency EC50; for Caspase activity Ratio (net RFU of test compound to control): 0.016 to 10 μM final
Protocol: as §1, §2, §3

T-47D [3] = assay: Inhibition of cell proliferation (GI50), CellTiter 96 AQUEOUS One, T-47D; type: cell-based; conditions: Homo sapiens, T47D, 48 h, read-out: GI50 (dose for 50% inhibition of cell proliferation)
Protocol: (§4) T-47D and ZR-75-1 cells were grown and harvested as in Example 22. An aliquot of 90 μl of cells (2.2×10^4 cells/ml) was added to a well of a 96-well microtiter plate containing 10 μl of a 10% DMSO in RPMI-1640 media solution containing 1 nM to 100 μM of 6-bromo-3-[3-(4-nitrophenyl)-1-oxo-2-propenyl]-4-phenyl-2(1H)-quinolinone (0.1 nM to 10 μM final). An aliquot of 90 μl of cells was added to a well of a 96-well microtiter plate containing 10 μl of a 10% DMSO in RPMI-1640 media solution without compound as the control sample for maximal cell proliferation (AMax). The samples were mixed by agitation and then incubated at 37° C. for 48 h in a 5% CO2-95% humidity incubator. After incubation, the samples were removed from the incubator and 20 μL of CellTiter 96 AQUEOUS One Solution Cell Proliferation™ reagent (Promega) was added. The samples were mixed by agitation and incubated at 37° C. for 2-4 h in a 5% CO2-95% humidity incubator. Using an absorbance plate reader (Model 1420 Wallac Instruments), an initial reading (T=0) was made approximately 1-2 min after addition of the solution, employing absorbance at 490 nm. This determines the possible background absorbance of the test compounds. No absorbance for 6-bromo-3-[3-(4-nitrophenyl)-1-oxo-2-propenyl]-4-phenyl-2(1H)-quinolinone was found at 490 nm. After the 2-4 h incubation, the samples were read for absorbance as above (ATest). […]

ZR-75-1 [4] = assay: Inhibition of cell proliferation (GI50), CellTiter 96 AQUEOUS One, ZR-75-1; type: cell-based; conditions: Homo sapiens, ZR-75-1, 48 h; read-out: GI50 (dose for 50% inhibition of cell proliferation)
Protocol: as §4

T-47D cells = assay: Apoptosis in T-47D cells by propidium iodide flow cytometry (sub-diploid DNA content); type: cell-based, Human; conditions: 5 μM, 48 h, control 3%
Protocol: T-47D, a breast cancer cell line, was maintained and harvested as described in Example 22. 5×10^5 cells were treated with 5 μM of 6-bromo-3-[3-(4-nitrophenyl)-1-oxo-2-propenyl]-4-phenyl-2(1H)-quinolinone for 48 h at 37° C. As a control, cells were also incubated with equivalent amount of solvent (DMSO). Cells were harvested at 1,200 rpm and then transferred to 12×75 mm polystyrene tubes. Cells were then resuspended in 500 μl of 1% Na Citrate, 0.1% Triton X-100, 50 μg/ml of propidium iodide and incubated at room temperature for 30 min followed by flow cytometer analysis. All flow cytometry analyses were performed on FACScalibur (Becton Dickinson) using Cell Quest analysis software. The x-axis plotted the amount of fluorescence and the y-axis is plotted the number of cells with the indicated fluorescence. The T-47D control cell population profile is seen in FIG. 1A. The sub-diploid DNA content of cells (FIG. 1B) is increased from 3% to 49% with compound treatment. The sub-diploid amount of DNA is indicative of apoptotic cells which have undergone DNA degradation or fragmentation.

[5] = molecular target: T1, protein tyrosine phosphatase 1B (PTP1B) (Homo sapiens, UniProt P18031); conditions: read-out: Ki5; cited from earlier work
T1 sequence (P18031 1-435): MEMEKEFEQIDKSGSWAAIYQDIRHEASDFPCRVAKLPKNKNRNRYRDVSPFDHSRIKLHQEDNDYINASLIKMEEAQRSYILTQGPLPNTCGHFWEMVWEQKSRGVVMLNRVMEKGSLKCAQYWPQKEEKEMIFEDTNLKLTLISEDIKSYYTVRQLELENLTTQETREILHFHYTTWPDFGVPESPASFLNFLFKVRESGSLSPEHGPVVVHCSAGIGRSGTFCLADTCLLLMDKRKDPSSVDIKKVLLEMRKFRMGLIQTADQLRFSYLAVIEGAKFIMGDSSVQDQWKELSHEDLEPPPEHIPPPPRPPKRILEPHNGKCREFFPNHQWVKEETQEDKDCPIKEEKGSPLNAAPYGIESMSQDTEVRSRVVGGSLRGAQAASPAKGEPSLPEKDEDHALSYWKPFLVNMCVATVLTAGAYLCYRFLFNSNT

Structure (SMILES)	Caspase activity Ratio (net RFU of test compound to control) (T-47D [1])	EC50 (T-47D [1]) [µM]	EC50 (ZR-75-1 [2]) [µM]	Caspase activity Ratio (net RFU of test compound to control) (ZR-75-1 [2])	GI50 (T-47D [3]) [µM]	GI50 (ZR-75-1 [4]) [µM]	sub-diploid DNA content of cells (M1) (T-47D cells) [%]	Ki [5] [µM]
O=C(C=Cc1ccc([N+](=O)[O-])cc1)c1c(-c2ccccc2)c2cc(Br)ccc2[nH]c1=O [Compound A, 6-bromo-3-[3-(4-nitrophenyl)-1-oxo-2-propenyl]-4-phenyl-2(1H)-quinolinone]	8.7	1.9	3.3	12.4	0.5	0.5	49	
O=C(C=Cc1cccc([N+](=O)[O-])c1)c1c(-c2ccccc2)c2cc(Br)ccc2[nH]c1=O [Compound B, 6-bromo-3-[3-(3-nitrophenyl)-1-oxo-2-propenyl]-4-phenyl-2(1H)-quinolinone]	10.6	0.849	1.8	12.1				
O=C(/C=C/c1cccc([N+](=O)[O-])c1)c1c(-c2ccccc2)c2ccc([N+](=O)[O-])cc2[nH]c1=O [7-Nitro-3-[3-(3-nitrophenyl)-acryloyl]-4-phenyl-1H-quinolin-2-one]								54
